Reference: patent publication US20260022118A1, “HETEROCYCLIC COMPOUNDS AS NRAS INHIBITORS” (Board of Regents, The University of Texas System, priority 2023, published 2026)

The compounds below were run against NRAS G12D C118S (Homo sapiens (Human), UniProt P01111, C118S/G12D) (assay: NRas G12D Surface Plasmon Resonance (SPR) binding assay). Conditions: Avi-tagged biotinylated NRAS G12D C118S on streptavidin chip, 25° C., 1:1 kinetic or steady-state fit.
Experimental: NRas G12D Surface Plasmon Resonance (SPR) Binding Assay
This Example illustrates that exemplary compounds and salts thereof described herein bind to NRAS G12D as measured by surface plasmon resonance (SPR).
Two liters of 1.03× running buffer (1.03×HBS-P+pH 7.4, containing 0.0103 M HEPES, 0.1545 M NaCl, 0.0515% v/v Surfactant P20 (Cytiva®, BR100671); 5.15 mM MgCl2 (Invitrogen, AM9530G); 0.515 mM TCEP, pH 8.0 (GoldBio®, TCEP25)) was prepared and filter sterilized using a 0.22 μm filter. A 1-L volumetric flask was filled partway with this buffer. A 30-mL volumetric flask was used to measure 30 mL of 100% DMSO (Sigma Aldrich®, 41639-100ML) which was added to the 1-L flask. The solution in the 1-L flask was brought up to 1 L with 1.03× buffer, resulting in a 1.0× assay running buffer containing 1.0×HBS-P+, 5 mM MgCl2, […], and 3% DMSO. Remaining 1.03× buffer was used for preparation of samples and immobilization running buffer.
Samples were prepared in a standard conical-bottomed 384-well microplate by adding 2 μL 10 mM DMSO cpd stock to each well, followed by 8 μL DMSO. A control compound was selected based off of its relatively “fast” kinetics that could be fitted by 1:1 kinetic fitting, as well as by steady-state fitting. Control wells for periodic injection to assess protein activity throughout the assay were also assembled, by diluting 10 mM compound 1:30 in DMSO, then adding 20 μL to the appropriate wells, such that the final concentration of compound would be 10 μM, and the final concentration of DMSO would be 3%. A Biomek™ FXP Laboratory Automation Workstation was used to stamp 20 μL DMSO into all sample wells—minus the control wells—according to the plate map, and then serially dilute 1:3 by mixing and aspirating 10 μL, delivering into the 20 μL of DMSO in the next well, resulting in 10-point serial dilution curves. A Biotek™ Multiflo EL406 Washer Dispenser was used to deliver 80 μL of 1.03× buffer to the compound plate. The plate was mixed 10× by FX, then a final dilution was performed by stamping 18 μL from the compound plate into a 384-well deep-well plate that had also been previously filled with 102 μL 1.03× buffer via the Multiflo. The solution in the deep-well plate was mixed 10× by FX, then sealed with a 384-well microplate foil from Cytiva® (Cytiva® BR100577) and placed on an orbital shaker for 30 minutes at 1000 RPM to ensure complete mixing of the DMSO solution in the buffer. A solvent correction curve was also prepared by making a 4% DMSO solution in 1.03× buffer and diluting in 1.03× buffer such that there were eight solutions of decreasing DMSO concentrations resulting in a high DMSO concentration of 4% and a low concentration of 2% DMSO.
Immobilization running buffer was prepared in a 200-mL volume by diluting 1.03× running buffer prepared above to 1.0×. A Cytiva® Streptavidin chip (Cytiva®, 29104992) was docked into a Biacore™ S200 instrument, and the instrument was then primed three times into the immobilization running buffer. A protein stock of Avi-tagged NRAS G12D C118S was prepared in-house and biotinylated using the Bulk BirA: BirA biotin-protein ligase bulk reaction kit from Avidity (Avidity®, Bulk BirA). Upon completion of the biotinylation reaction, Amicon® ultra 0.5-mL Centrifugal Filters with a MWCO of 3 k Da (Millipore® UFC500396) were used to reduce the free biotin concentration below 0.1 μM in the protein sample over the course of eight desalting cycles, according to the manufacturer's protocol. Resulting protein concentration was not measured directly as an accurate protein concentration is not required for immobilizing protein on the chip surface; however, a theoretical yield of ≤1.5 mg/mL was estimated based off of retained volumes during the desalting process. Reagents for immobilization were prepared as instructed in the Biacore™ 5200 Control Software Immobilization Wizard, including solutions of 1 M NaCl in 50 mM NaOH, and 1 M NaCl in 50 mM NaOH and 50% isopropyl alcohol. […]

Chain of NRAS G12D C118S (P01111 whole entry G12D/C118S): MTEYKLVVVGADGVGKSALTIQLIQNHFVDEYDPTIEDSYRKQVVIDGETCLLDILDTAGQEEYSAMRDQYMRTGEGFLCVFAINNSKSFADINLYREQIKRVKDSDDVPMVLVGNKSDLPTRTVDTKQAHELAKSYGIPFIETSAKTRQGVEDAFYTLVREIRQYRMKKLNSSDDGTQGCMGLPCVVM

| SMILES | Kd [µM] |
| --- | --- |
| C#Cc1c(F)ccc2cc(O)cc(-c3ncc4c([C@H]5[C@@H]6CNC[C@@H]65)cn(C)c4c3F)c12 [Example 2, 4-(3-((1R,5S,6S)-3-azabicyclo[3.1.0]hexan-6-yl)-7-fluoro-1-methyl-1H-pyrrolo[3,2-c]pyridin-6-yl)-5-ethynyl-6-fluoronaphthalen-2-ol 2,2,2-trifluoroacetate] | 0.0526 |
| C#Cc1c(F)ccc2cc(O)cc(-c3ncc4c([C@H]5[C@@H]6CNC[C@@H]65)nn(C)c4c3F)c12 [Example 3, 4-(3-((1R,5S,6r)-3-azabicyclo[3.1.0]hexan-6-yl)-7-fluoro-1-methyl-1H-pyrazolo[4,3-c]pyridin-6-yl)-5-ethynyl-6-fluoronaphthalen-2-ol] | 0.085 |
| C#Cc1c(F)ccc2cc(O)cc(-c3ncc4c([C@H]5[C@@H]6CNC[C@@H]65)nn(C5CC5)c4c3F)c12 [Example 4, 4-(3-((1R,5S,6r)-3-azabicyclo[3.1.0]hexan-6-yl)-1-cyclopropyl-7-fluoro-1H-pyrazolo[4,3-c]pyridin-6-yl)-5-ethynyl-6-fluoronaphthalen-2-ol 2,2,2-trifluoroacetate] | 0.0205 |
| C#Cc1c(F)ccc2cc(O)cc(-c3cc4c(cn3)c(N3CC5CCC(C3)N5)nn4CC)c12 [Example 6, 4-(3-(3,8-diazabicyclo[3.2.1]octan-3-yl)-1-ethyl-1H-pyrazolo[4,3-c]pyridin-6-yl)-5-ethynyl-6-fluoronaphthalen-2-ol] | 8.2 |
| C#Cc1c(F)ccc2cc(O)cc(-c3cc4c(cn3)c(N3CC5CCC(C3)N5)nn4CCC)c12 [Example 7, 4-(3-(3,8-diazabicyclo[3.2.1]octan-3-yl)-1-propyl-1H-pyrazolo[4,3-c]pyridin-6-yl)-5-ethynyl-6-fluoronaphthalen-2-ol] | 4.75 |
| C#Cc1c(F)ccc2cc(O)cc(-c3ncc4c(C5=CC6CCC(C5)N6)nn(CC)c4c3F)c12 (centres unmarked) [Example 9, 4-(3-(8-azabicyclo[3.2.1]oct-2-en-3-yl)-1-ethyl-7-fluoro-1H-pyrazolo[4,3-c]pyridin-6-yl)-5-ethynyl-6-fluoronaphthalen-2-ol] | 16.2 |
| C#Cc1c(F)ccc2cc(O)cc(-c3ncc4c(N5CCNCC5)nn(CC)c4c3F)c12 [Example 10, 4-(1-ethyl-7-fluoro-3-(piperazin-1-yl)-1H-pyrazolo[4,3-c]pyridin-6-yl)-5-ethynyl-6-fluoronaphthalen-2-ol] | 38.7 |
| C#Cc1c(F)ccc2cc(O)cc(-c3ncc4c(N[C@H]5[C@@H]6CNC[C@@H]65)nn(CC)c4c3F)c12 [Example 11, 4-(3-(((1R,5S,6s)-3-azabicyclo[3.1.0]hexan-6-yl)amino)-1-ethyl-7-fluoro-1H-pyrazolo[4,3-c]pyridin-6-yl)-5-ethynyl-6-fluoronaphthalen-2-ol] | 31 |
| C#Cc1c(F)ccc2cc(O)cc(-c3ncc4c(NCC5(N(C)C)CCC5)nn(CC)c4c3F)c12 [Example 12, 4-(3-(((1-(dimethylamino)cyclobutyl)methyl)amino)-1-ethyl-7-fluoro-1H-pyrazolo[4,3-c]pyridin-6-yl)-5-ethynyl-6-fluoronaphthalen-2-ol] | 8.35 |
| C#Cc1c(F)ccc2cc(O)cc(-c3ncc4c(N5CC6CCC(C5)N6)nn(CCC)c4c3F)c12 [Example 14, 4-(3-(3,8-diazabicyclo[3.2.1]octan-3-yl)-7-fluoro-1-propyl-1H-pyrazolo[4,3-c]pyridin-6-yl)-5-ethynyl-6-fluoronaphthalen-2-ol] | 4.41 |
| C#Cc1c(F)ccc2cc(O)cc(-c3ncc4c(N5CC6CCC(C5)N6)nn(CC5CCOC5)c4c3F)c12 (centres unmarked) [Example 15, 4-(3-(3,8-diazabicyclo[3.2.1]octan-3-yl)-7-fluoro-1-((tetrahydrofuran-3-yl)methyl)-1H-pyrazolo[4,3-c]pyridin-6-yl)-5-ethynyl-6-fluoronaphthalen-2-ol] | 5.97 |
| C#Cc1c(F)ccc2cc(O)cc(-c3ncc4c(N5CC6CCC(C5)N6)nn(C5CCC5)c4c3F)c12 [Example 16, 4-(3-(3,8-diazabicyclo[3.2.1]octan-3-yl)-1-cyclobutyl-7-fluoro-1H-pyrazolo[4,3-c]pyridin-6-yl)-5-ethynyl-6-fluoronaphthalen-2-ol] | 5.65 |
| C#Cc1c(F)ccc2cc(O)cc(-c3ncc4c(N5CC6CCC(C5)N6)n[nH]c4c3F)c12 [Example 17, 4-(3-(3,8-diazabicyclo[3.2.1]octan-3-yl)-7-fluoro-1H-pyrazolo[4,3-c]pyridin-6-yl)-5-ethynyl-6-fluoronaphthalen-2-ol] | 30.8 |
| C#Cc1c(F)ccc2cc(O)cc(-c3cc4[nH]nc(N5CC6CCC(C5)N6)c4cn3)c12 [Example 18, 4-(3-(3,8-diazabicyclo[3.2.1]octan-3-yl)-1H-pyrazolo[4,3-c]pyridin-6-yl)-5-ethynyl-6-fluoronaphthalen-2-ol] | 40.5 |
| C#Cc1c(F)ccc2cc(O)cc(-c3cc4c(cn3)c(N3C5CCC3CNC5)nn4C)c12 [Example 19, 4-(3-(3,8-diazabicyclo[3.2.1]octan-8-yl)-1-methyl-1H-pyrazolo[4,3-c]pyridin-6-yl)-5-ethynyl-6-fluoronaphthalen-2-ol] | 6.1 |
| C#Cc1c(F)ccc2cc(O)cc(-c3ncc4c([C@H]5[C@@H]6CNC[C@@H]65)nn(CC)c4c3F)c12 [Example 20, 4-(3-((1R,5S,6r)-3-azabicyclo[3.1.0]hexan-6-yl)-1-ethyl-7-fluoro-1H-pyrazolo[4,3-c]pyridin-6-yl)-5-ethynyl-6-fluoronaphthalen-2-ol] | 0.159 |
| C#Cc1c(F)ccc2cc(O)cc(-c3cc4c(cn3)c([C@H]3[C@@H]5CNC[C@@H]53)cn4C)c12 [Example 22, 4-(3-((1R,5S,6s)-3-azabicyclo[3.1.0]hexan-6-yl)-1-methyl-1H-pyrrolo[3,2-c]pyridin-6-yl)-5-ethynyl-6-fluoronaphthalen-2-ol] | 1.64 |
| C#Cc1c(F)ccc2cc(O)cc(-c3ncc4c([C@H]5[C@@H]6CNC[C@@H]65)c(CO)n(C)c4c3F)c12 [Example 23, 4-(3-((1R,5S,6s)-3-azabicyclo[3.1.0]hexan-6-yl)-7-fluoro-2-(hydroxymethyl)-1-methyl-1H-pyrrolo[3,2-c]pyridin-6-yl)-5-ethynyl-6-fluoronaphthalen-2-ol] | 13.7 |

Each compound was assayed on THP-1 cells expressing G12D (NRAS G12D) (assay: Inhibition of NRAS G12D-mediated phosphorylation of ERK (AlphaLISA p-ERK1/2) in THP-1 cells). Conditions: Homo sapiens, THP-1, 2 h, 2 hours incubation, HBSS with 0% or 10% FBS, p-ERK1/2 (Thr202/Tyr204) AlphaLISA, read-out: pERK THP-1 IC50.
Type: cell-based
Experimental: Inhibition of NRAS G12D-Mediated Phosphorylation of ERK by Exemplary Compounds of Formulas I, II, and III.
This Example illustrates that exemplary compounds and salts thereof described herein inhibit the phosphorylation of ERK downstream of NRAS G12D.
THP-1 cells (ATCC TIB-202) expressing G12D were maintained in RPMI-1640 medium supplemented with 10% fetal bovine serum (FBS), 0.05 mM 2-mercaptoethanol, and penicillin/streptomycin. Cells (20,000/well) were seeded onto a 384 well plate in 20 μL of HBSS supplemented with 0% or 10% FBS. Cells were incubated in the absence or presence of various concentrations of test compound (final 1% DMSO) for 2 hours. p-ERK expression was assessed using the AlphaLISA SureFire Ultra p-ERK1/2 (Thr202/Tyr204) (PerkinElmer®, ALSU-PERK-A10K) following manufacturer recommendation. Plates were read on a PerkinElmer® Envision Multimode plate reader. Dose-response curves were analyzed using IC50 regression curve fitting (GeneData Screener). Curves were plotted as a percent control and normalized by high controls without inhibitor (100%), and low controls (0%) containing 1 μM of trametinib, a potent MEK inhibitor.

| SMILES | IC50 [µM] |
| --- | --- |
| C#Cc1c(F)ccc2cc(O)cc(-c3ncc4c([C@H]5[C@@H]6CNC[C@@H]65)nn(C)c4c3F)c12 [Example 3, 4-(3-((1R,5S,6r)-3-azabicyclo[3.1.0]hexan-6-yl)-7-fluoro-1-methyl-1H-pyrazolo[4,3-c]pyridin-6-yl)-5-ethynyl-6-fluoronaphthalen-2-ol] | 0.925 |
| C#Cc1c(F)ccc2cc(O)cc(-c3ncc4c([C@H]5[C@@H]6CNC[C@@H]65)nn(C5CC5)c4c3F)c12 [Example 4, 4-(3-((1R,5S,6r)-3-azabicyclo[3.1.0]hexan-6-yl)-1-cyclopropyl-7-fluoro-1H-pyrazolo[4,3-c]pyridin-6-yl)-5-ethynyl-6-fluoronaphthalen-2-ol 2,2,2-trifluoroacetate] | 0.394 |
